Results: US20180289655A1, “Methods and Compositions for the Intravenous Administration of Fumarates for the Treatment of Neurological Diseases” (Biogen MA Inc., priority 2015, published 2018)
Entries after “also recorded” stand apart in the source; their conditions may differ. Where a name gives a salt, the structure may show the parent alone.

Columns and labels:
[1] = Chemical stability of DMF nano suspension (HPLC); assay type: physicochemical; conditions: Day 1, room temperature
Method: 5.0 ml of pH5.0 phosphate buffer (Fisher Scientific, Lot No. 100498) were added to the tube. Further, ZrO2 beads (˜10 ml) were also added to the tube. The sample was vortexed in a Fisher Scientific multi-tube vortexer at 2500 rpm for 60 min and the particle size was checked via optical microscopic image. An additional 5.0 ml of pH5 phosphate buffer was added and the sample was further milled overnight. The temperature of the sample was ˜60° C. due to the overnight milling. The particle size was determined via microscopic image and Mastersizer 2000.
The suspension was stored at room temperature and samples were taken at day 1 and day 7. The stability of the samples was examined using HPLC method for chemical stability, PSD and microscopic image (data not provided) for physical stability.

[2] = system: prototypical Nrf2 response genes (Akr1b8, Gclc, Hmox1, Nqo1, Txnrd1, Osgin1); assay: qRT-PCR of Nrf2 response genes in tissues after DMF PO or IV; assay type: in vivo, Sprague-Dawley rats; conditions: for Nrf2 genes significantly modulated, forebrain / Nrf2 genes significantly modulated, jejunum / Nrf2 genes significantly modulated, kidney / Nrf2 genes significantly modulated, cerebellum / Nrf2 genes significantly modulated, spleen: 2 and 6 hours, vs vehicle
Method: On Day 5 of the study 3 time points were evaluated: 10 minutes, 2 hours, and 6 hours after dosing, as illustrated in the timeline. At each time point, 5 animals from each group were sacrificed. At the 2 and 6 hour time points, the tissue samples from groups E, F, I, and J from each animal were split, with half of the tissue being processed for MMF exposure, and half processed for qRT-PCR. Note vehicle groups (C, D, G, and H) were not processed for MMF measurement and only used for qRT-PCR.
Two and 6 hours after dosing, cohorts of animals from Groups C, D, E and F and G, H, I and J, respectively, were sacrificed and tissues (forebrain, cerebellum, jejunum, kidney, and spleen) were collected for RNA analysis by qRT-PCR for expression of prototypical Nrf2 response genes.
For RNA preparation, frozen tissues were placed in 2 mL RNAse-free 96-well blocks with 1.5 mL QIAzol Lysis Reagent (QIAgen) and a 3.2 mm stainless steel bead (BioSpec Products, Bartlesville, Okla.). Tissues were disrupted for four cycles of 45 seconds in a Mini-Beadbeater (Biospec Products). RNA was extracted in chloroform and the aqueous phase was mixed with an equal volume of 70% ethanol. Extracted RNA was applied to RNeasy 96 plates and purified by the spin method according to the manufacturer's protocol (RNeasy 96 Universal Tissue Protocol, QIAgen, Hilden Germany).
Samples were reverse-transcribed into cDNA according to the manufacturer's protocols (Life Technologies, Carlsbad, Calif.) and analyzed by real-time polymerase chain reaction (qPCR). Rat target gene primers and 6-FAM™ dye-labeled TaqMan® MGB™ probes (Life Technologies) were used. Reactions containing 100 ng of cDNA, 900 nM of each primer, and 250 nM TaqMan probes were cycled on a QuantStudio 12 k-flex system (Life Technologies) once for 10 minutes at 95° C., followed by 40 cycles of 95° C. for 10 seconds and 60° C. for 1 minute. All samples were measured in triplicate with Gapdh as a normalizing gene. Taqman primer/probe sets from Life Technologies included: Akr1b8 (Rn00756513_m1); Gclc (Rn00689046_m1); Hmox1 (Rn01536933_m1); Nqo1 (Rn00566528_m1); Txnrd1 (Rn01503798_m1); Osgin1 (Rn00593303_m1) and Gapdh (Rn01775763_g1). Final analysis was performed using the comparative CT method to calculate fold changes and samples were normalized relative to vehicle controls at each time point. In all graphs, the mean fold-change (±standard deviation) is depicted.

[3] = Solution stability of DMF in aqueous solution (HPLC); assay type: physicochemical; set-up: DMF assay: unit not given here
Method: Solution stability studies were conducted using 0.2 mg/ml concentration solutions, which were achieved by mixing equal volumes of the stock solution and individual study media. […] Samples stored at 37° C. or ambient temperature were pulled at predetermined time points, and analyzed by HPLC.

[4] = SGF (without pepsin), 0.2 mg/ml, initial
[5] = SGF (without pepsin), 37° C., 24 hr
[6] = SGF (without pepsin), ambient temperature, 24 hr
[7] = SGF (without pepsin), ambient temperature, 48 hr
[8] = SGF (without pepsin), ambient temperature, 72 hr
[9] = SIF (without pancreatin), 0.2 mg/ml, initial
[10] = SIF (without pancreatin), 37° C., 24 hr
[11] = SIF (without pancreatin), ambient temperature, 24 hr
[12] = SIF (without pancreatin), ambient temperature, 48 hr
[13] = SIF (without pancreatin), ambient temperature, 72 hr
[14] = Water, ambient temperature, 24 hr
[15] = Water, ambient temperature, 48 hr
[16] = Water, ambient temperature, 72 hr
[17] = pH 2 Citrate Buffer, 0.2 mg/ml, initial
[18] = pH 2 Citrate Buffer, 37° C., 24 hr
[19] = pH 2 Citrate Buffer, ambient temperature, 24 hr
[20] = pH 2 Citrate Buffer, ambient temperature, 48 hr
[21] = pH 2 Citrate Buffer, ambient temperature, 72 hr
[22] = pH 4 Citrate Buffer, 0.2 mg/ml, initial
[23] = pH 4 Citrate Buffer, 37° C., 24 hr
[24] = pH 4 Citrate Buffer, ambient temperature, 24 hr
[25] = pH 4 Citrate Buffer, ambient temperature, 48 hr
[26] = pH 4 Citrate Buffer, ambient temperature, 72 hr
[27] = pH 6 Citrate Buffer, 0.2 mg/ml, initial
[28] = pH 6 Citrate Buffer, 37° C., 24 hr
[29] = pH 6 Citrate Buffer, ambient temperature, 24 hr
[30] = pH 6 Citrate Buffer, ambient temperature, 48 hr
[31] = pH 6 Citrate Buffer, ambient temperature, 72 hr
[32] = pH 8 Borate Buffer, 0.2 mg/ml, initial
[33] = pH 8 Borate Buffer, 37° C., 24 hr
[34] = pH 8 Borate Buffer, ambient temperature, 24 hr
[35] = pH 10 Borate Buffer, 0.2 mg/ml, initial
[36] = pH 10 Borate Buffer, 37° C., 24 hr
[37] = pH 10 Borate Buffer, ambient temperature, 24 hr

## COC(=O)/C=C/C(=O)OC [DMF, dimethyl fumarate]
[1]
  Area % of DMF remaining: 99.9 area %
[2]; DMF IV 30 mg/kg
  Nrf2 genes significantly modulated, forebrain: significant modulation of Nqo1, Osgin1, Akr1b8, and Hmox1 at both 2 and 6 hours
  Nrf2 genes significantly modulated, jejunum: significant increases were observed for Nqo1 and Hmox1 at 6 hours, and in Osgin1 expression at 2 hours
  Nrf2 genes significantly modulated, kidney: significant modulation of Nqo1 and Txnrd1 at 2 and 6 hours, and Hmox1 only at 2 hours
[2]; DMF IV 30 mg/kg, 30 mg/kg
  Nrf2 genes significantly modulated, cerebellum: significant modulation was observed for Nqo1, Osgin1, Akr1b8, and Hmox1 at both 2 and 6 hours; also recorded: significant increase in the transcriptional responses of Gclc and Txnrd1 in the cerebellum, but only at the later 6-hour time point
  Nrf2 genes significantly modulated, spleen: significant transcriptional increases were noted for Osgin1 at both 2 and 6 hour time points; also recorded: significant changes in Akr1b8 and Txnrd1 were observed only at the 2 hour time point; also recorded: A significant change in Nqo1 was also found 6 hours after DMF IV dosing
[2]; DMF PO 100 mg/kg or IV 30 mg/kg
  Hmox1 expression in spleen: No changes were observed
[2]; DMF PO 100 mg/kg
  Nrf2 genes significantly modulated, cerebellum: significant modulation of 3 genes in cerebellar tissue: Osgin1 at 2 and 6 hours, Akr1b8 at 2 hours, and Hmox1 at the 6 hour time point
  Nrf2 genes significantly modulated, forebrain: modulation of only two genes: Osgin1 at 2 and 6 hours and Akr1b8 only at 2 hours
  Nrf2 genes significantly modulated, spleen: significant increases in Nqo1, Osgin1, Akr1b8, Gclc, and Txnrd1 at both 2 and 6 hours
[2]; DMF PO 100 mg/kg, 100 mg/kg
  Nrf2 genes significantly modulated, jejunum: significant increases in Osgin1, Akr1b8, and Txnrd1 at both 2 and 6 hours; also recorded: Nqo1 expression was increased after PO DMF dosing only at the 6-hour time point; also recorded: significant increases in Gclc and Hmox1 were observed at the 2-hour time point
  Nrf2 genes significantly modulated, kidney: significant changes at both 2 and 6 hour time points for Nqo1, Hmox1, and Txnrd1; also recorded: Osgin1 was significantly modulated only at the 2 hour time point
[2]; forebrain, kidney and spleen, PO 100 mg/kg and IV 30 mg/kg
  Relationship of MMF exposure (10 minutes) and pharmacodynamic response (2 or 6 hours): clear positive correlation in MMF exposure and pharmacodynamic response
[3]; 37° C., aqueous media
  Stability of DMF in solution at higher pH: decreased rapidly as the solution pH went above 7
  pH of maximum stability of DMF in solution: ~4
[3]; [4]
  DMF area %: 99.3 area %
  DMF assay: 102.9
[3]; [5]
  DMF area %: 92.2 area %
  DMF assay: 91.1
[3]; [6]
  DMF area %: 96.6 area %
  DMF assay: (95.2)
[3]; [7]
  DMF area %: 95.6 area %
  DMF assay: (92.5)
[3]; [8]
  DMF area %: 95.4 area %
  DMF assay: (91.6)
[3]; [9]
  DMF area %: 99.3 area %
  DMF assay: 100.9
[3]; [10]
  DMF area %: 29.5 area %
  DMF assay: 27.8
[3]; [11]
  DMF area %: 68.7 area %
  DMF assay: (68.3)
[3]; [12]
  DMF area %: 64.5 area %
  DMF assay: (60.3)
[3]; [13]
  DMF area %: 62.2 area %
  DMF assay: (59.0)
[3]; Water, 0.2 mg/ml, initial
  DMF area %: 96.6 area %
  DMF assay: 98.9
[3]; Water, 37° C., 24 hr
  DMF area %: 77.4 area %
  DMF assay: 73.9
[3]; [14]
  DMF area %: 84.8 area %
  DMF assay: (81.6)
[3]; [15]
  DMF area %: 85.1 area %
  DMF assay: (80.2)
[3]; [16]
  DMF area %: 83.5 area %
  DMF assay: (79.3)
[3]; [17]
  DMF area %: 99.5 area %
  DMF assay: 101.0
[3]; [18]
  DMF area %: 97.9 area %
  DMF assay: 96.0
[3]; [19]
  DMF area %: 99.1 area %
  DMF assay: (94.7)
[3]; [20]
  DMF area %: 98.9 area %
  DMF assay: (93.2)
[3]; [21]
  DMF area %: 98.7 area %
  DMF assay: (92.0)
[3]; [22]
  DMF area %: 99.8 area %
  DMF assay: 101.9
[3]; [23]
  DMF area %: 99.6 area %
  DMF assay: 100.4
[3]; [24]
  DMF area %: 99.6 area %
  DMF assay: (97.2)
[3]; [25]
  DMF area %: 99.2 area %
  DMF assay: (98.5)
[3]; [26]
  DMF area %: 99.6 area %
  DMF assay: (93.9)
[3]; [27]
  DMF area %: 100 area %
  DMF assay: 101.4
[3]; [28]
  DMF area %: 92.6 area %
  DMF assay: 91.8
[3]; [29]
  DMF area %: 97.5 area %
  DMF assay: (90.7)
[3]; [30]
  DMF area %: 95.3 area %
  DMF assay: (92.5)
[3]; [31]
  DMF area %: 96.1 area %
  DMF assay: (88.4)
[3]; [32]
  DMF area %: 98.6 area %
  DMF assay: 101.0
[3]; [33]
  DMF area %: 17.2 area %
  DMF assay: 15.9
[3]; [34]
  DMF area %: 46.5 area %
  DMF assay: (44.8)
[3]; [35]
  DMF area %: 37.1 area %
  DMF assay: 36.1
[3]; [36]
  DMF area %: 0/0 area %
  DMF assay: 0/0
[3]; [37]
  DMF area %: 0/0 area %
  DMF assay: 0/0
[3]; pH 10 borate buffer solution
  Degradation of DMF before initial HPLC determination: more than half of DMF degraded before an initial concentration was able to be determined
